Measured values from US7291732B2, “Isomeric fused pyrrolocarbazoles and isoindolones” (Cephalon, Inc., priority 1999, dated 2007).
Where two headings read alike, the source gives them in different places. Each block holds one compound with its values, some of them ahead of it.

How the values were obtained:
[1] = target: T1, baculovirus-expressed human trkA cytoplasmic domain (Homo sapiens, UniProt P04629); assay: trkA tyrosine kinase activity inhibition, ELISA-based assay; type: biochemical; details: for inhibition at 0.3 µM: read-out: trkA (% inhibition @ 300 nM)
T1 construct: baculovirus-expressed human trkA cytoplasmic domain; made in house
Experimental: Selected isomeric fused pyrrolocarbazole and isoindolone compounds were tested for their ability to inhibit the kinase activity of baculovirus-expressed human trkA cytoplasmic domain using an ELISA-based assay as previously described (Angeles et al, Anal. Biochem. 236: 49-55, 1996). Briefly, the 96-well microtiter plate was coated with substrate solution (recombinant human phospholipase C-γl/glutathione S-transferase fusion protein (Rotin et al., EMBO J., II: 559-567, 1992). Inhibition studies were performed in 100 μl assay mixtures containing 50 mM Hepes, pH 7.4, 40 μM ATP, 10 mM MnCl2, 0.1% BSA; 2% DMSO, and various concentrations of inhibitor. The reaction was initiated by addition of trkA kinase and allowed to proceed for 15 minutes at 37° C. An antibody to phosphotyrosine (UBI) was then added, followed by a secondary enzyme-conjugated antibody, alkaline phosphatase-labelled goat anti-mouse IgG (Bio-Rad). The activity of the bound enzyme was measured via an amplified detection system (Gibco-BRL). Inhibition data were analyzed using the sigmoidal dose-response (variable slope) equation in GraphPad Prism.

[2] = target: T2, baculovirus-expressed VEGF receptor (human flk-1, KDR, VEGFR2) kinase domain (Homo sapiens, UniProt P35968); assay: VEGF receptor kinase activity inhibition, ELISA assay; type: biochemical; details: for IC50 / VEGFR kinase (% inhibition @ 300 nM): 40 μM ATP; for IC50: value printed without parentheses, read-out: VEGFR kinase IC50; for VEGFR kinase (% inhibition @ 300 nM): 300 nM compound, value printed in parentheses
T2 construct: VEGF receptor (human flk-1, KDR, VEGFR2) kinase domain; made in house
Experimental: Isomeric fused pyrrolocarbazole and isoindolone compounds were examined for their inhibitory effects on the kinase activity of baculovirus-expressed VEGF receptor (human flk-1, KDR, VEGFR2) kinase domain using the procedure described for the trkA kinase ELISA assay described above. The kinase reaction mixture, consisting of 50 mM Hepes, pH 7.4, 40 μM ATP, 10 mM MnCl2, 0.1% BSA, 2% DMSO, and various concentrations of inhibitor, was transferred to PLC-γ/GST-coated plates. VEGFR kinase was added and the reaction was allowed to proceed for 15 min at 37° C. Detection of phosphorylated product was accomplished by addition of anti-phosphotyrosine antibody (UBI). A secondary enzyme-conjugated antibody was delivered to capture the antibody-phosphorylated PLC-γ/GST complex. The activity of the bound enzyme was measured via an amplified detection system (Gibco-BRL). Inhibition data were analyzed using the sigmoidal dose-response (variable slope) equation in GraphPad Prism Results are summarized in Table 6.

[3] = target: T3, baculovirus-expressed PDGFβ receptor kinase domain (Homo sapiens, UniProt P09619); assay: PDGF receptor kinase activity inhibition, ELISA assay; type: biochemical; details: for inhibition at 1 µM: read-out: PDGFRβ (% inhibition @ 1 μM)
T3 construct: baculovirus-expressed PDGFβ receptor kinase domain; made in house
Experimental: Isomeric fused pyrrolocarbazole and isoindolone compounds were examined for their inhibitory effects on the kinase activity of baculovirus-expressed PDGFβ receptor kinase domain using the trkA kinase ELISA described above. Assays were performed in substrate (PLC-γ/GST)-coated 96-well microtiter plates. Each 100-μl reaction mixture contained 50 mM HEPES, pH 7.4, 20 μM ATP, 10 mM MnCl2, 0.1% BSA, 2% DMSO, and various concentrations of inhibitor. The reaction was initiated by addition of prephosphorylated recombinant human enzyme (10 ng/ml PDGFβ) and allowed to proceed for 15 minutes at 37° C. The prephosphorylated enzyme was prepared prior to use by incubation of the kinase in buffer containing 20 μM ATP and 10 mM MnCl2 for 1 hour at 4 C. Detection of phosphorylated product was done by adding horseradish peroxidase (HRP)-conjugated anti-phosphotyrosine antibody (UBI). The HRP substrate solution containing 3,3′-5,5′-tetramethylbenzidine and hydrogen peroxide was later added and the plates were incubated for 10 minutes at room temperature. The reaction was quenched with acid and the resulting absorbance was read at 450 nm using a Microplate Bio-kinetics Reader (Bio-Tek Instrument EL 312e). Inhibition data were analyzed using the sigmoidal dose-response (variable slope) equation in GraphPad Prism.

[4] = 300 nM compound, 40 μM ATP, value printed in parentheses
[5] = 1 μM compound, 20 μM ATP, value printed in parentheses

T2 sequence (P35968 834-1162 limits assumed): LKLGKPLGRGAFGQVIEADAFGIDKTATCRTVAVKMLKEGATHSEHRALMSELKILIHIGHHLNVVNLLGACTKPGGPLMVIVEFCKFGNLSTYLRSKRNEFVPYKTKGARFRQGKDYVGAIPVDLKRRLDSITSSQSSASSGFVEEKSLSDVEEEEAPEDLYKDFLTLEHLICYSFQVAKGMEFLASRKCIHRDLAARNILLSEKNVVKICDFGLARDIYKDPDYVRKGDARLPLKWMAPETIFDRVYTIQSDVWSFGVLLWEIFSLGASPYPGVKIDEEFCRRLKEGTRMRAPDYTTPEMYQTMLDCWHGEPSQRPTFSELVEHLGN
T3 sequence (P09619 600-962 limits assumed): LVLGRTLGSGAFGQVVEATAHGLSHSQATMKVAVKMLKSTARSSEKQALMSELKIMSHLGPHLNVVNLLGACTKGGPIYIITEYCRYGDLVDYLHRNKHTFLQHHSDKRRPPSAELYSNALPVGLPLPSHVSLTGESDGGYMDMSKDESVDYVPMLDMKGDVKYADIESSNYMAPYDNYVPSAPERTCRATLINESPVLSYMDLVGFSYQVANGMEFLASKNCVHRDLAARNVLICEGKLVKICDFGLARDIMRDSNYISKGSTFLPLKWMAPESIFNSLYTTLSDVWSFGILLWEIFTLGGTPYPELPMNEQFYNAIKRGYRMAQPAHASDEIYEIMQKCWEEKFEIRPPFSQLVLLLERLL
T1 sequence (P04629 440-796 limits assumed): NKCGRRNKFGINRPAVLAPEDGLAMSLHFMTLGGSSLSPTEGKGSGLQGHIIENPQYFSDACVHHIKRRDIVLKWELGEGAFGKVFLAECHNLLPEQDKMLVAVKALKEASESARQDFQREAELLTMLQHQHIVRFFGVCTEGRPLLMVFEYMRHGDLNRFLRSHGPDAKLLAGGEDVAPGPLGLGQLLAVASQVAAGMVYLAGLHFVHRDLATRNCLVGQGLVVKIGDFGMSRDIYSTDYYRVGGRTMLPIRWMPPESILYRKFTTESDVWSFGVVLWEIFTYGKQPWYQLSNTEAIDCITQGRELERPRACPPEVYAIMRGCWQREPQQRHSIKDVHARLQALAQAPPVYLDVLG

- inhibition at 0.3 µM [1, 4]: 15%
- IC50 [2]: 138 nM
Compound: O=C1NCc2c3c(c4c(c21)c1ccccc1n4CCO)-c1ccccc1CC3 [Compound X-4]

- inhibition at 0.3 µM [1, 4]: 0%
- IC50 [2]: 71 nM
- inhibition at 1 µM [3, 5]: 6%
- melting point: > 300 °C
Compound: O=C1NC(=O)c2c1c1c(c3[nH]c4ccccc4c23)-c2ccccc2C1 [IV-1]

- inhibition at 0.3 µM [1, 4]: 2%
- IC50 [2]: 870 nM
- inhibition at 1 µM [3, 5]: 17%
Compound: O=c1[nH]c(=O)c2c1c1c(=O)c3ccccc3c1c1[nH]c3ccccc3c12 [IV-2]

- inhibition at 0.3 µM [1, 4]: 18%
- IC50 [2]: 332 nM
- inhibition at 1 µM [3, 5]: 0%
- melting point: > 262 °C
Compound: Cn1c2ccccc2c2c3c(c4c(c21)-c1ccccc1C4)C(=O)NC3=O [IV-3]

Compound: O=C1NC(=O)c2c1c1c(c3[nH]c4ccccc4c23)-c2ccccc2CC1 [IV-5]
- trkA (% inhibition @ 300 nM) [1, 4]: (14) %
- IC50 [2]: 160 nM
- PDGFRβ (% inhibition @ 1 μM) [3, 5]: (26) %

Compound: COc1ccc2[nH]c3c4c(c5c(c3c2c1)C(=O)NC5=O)CCc1ccccc1-4 [IV-6]
- inhibition at 0.3 µM ([2]; read-out: VEGFR kinase (% inhibition @ 300 nM)): 14%

- inhibition at 0.3 µM [1, 4]: 6%
- IC50 [2]: 2860 nM
- inhibition at 1 µM [3, 5]: 20%
- melting point: > 300 °C
Compound: O=C1NC(=O)c2c1c1c(c3[nH]c4ccc(Br)cc4c23)-c2ccccc2CC1 [IV-9]

- inhibition at 0.3 µM [1, 4]: 6%
- IC50 [2]: 5330 nM
- inhibition at 1 µM [3, 5]: 11%
Compound: O=C1NC(=O)c2c1c1sc3ccccc3c1c1[nH]c3ccccc3c21 [IV-10]

- inhibition at 0.3 µM [1, 4]: 4%
- IC50 [2]: 555 nM
- inhibition at 1 µM [3, 5]: 6%
Compound: O=C1NC(=O)c2c1c1c(c3[nH]c4ccccc4c23)-c2ccccc2OC1 [IV-11]

Compound: COCC1c2ccccc2-c2c1c1c(c3c2[nH]c2ccccc23)C(=O)NC1=O (centres unmarked) [IV-12]
- VEGFR kinase (% inhibition @ 300 nM) [2]: (19) %

Compound: O=C1NC(=O)c2c1c1c(c3[nH]c4ccccc4c23)-c2ccccc2C1C(O)c1cccnc1 (centres unmarked) [IV-13]
- VEGFR kinase (% inhibition @ 300 nM) [2]: (8) %

Compound: O=C1NC(=O)c2c1c1c(c3[nH]c4ccccc4c23)-c2ccccc2C1CO (centres unmarked) [IV-15]
- VEGFR kinase (% inhibition @ 300 nM) [2]: (7) %

Compound: O=C1NC(=O)c2c1c1c(c3[nH]c4ccccc4c23)-c2ccccc2C1c1cccs1 (centres unmarked) [IV-16]
- VEGFR kinase (% inhibition @ 300 nM) [2]: (14) %

Compound: COCCOCC1c2ccccc2-c2c1c1c(c3c2[nH]c2ccccc23)C(=O)NC1=O (centres unmarked) [IV-17]
- VEGFR kinase (% inhibition @ 300 nM) [2]: (3) %

Compound: O=C1NC(=O)c2c1c1c(c3[nH]c4ccccc4c23)-c2ccccc2C1C(O)c1ccncc1 (centres unmarked) [IV-18]
- VEGFR kinase (% inhibition @ 300 nM) [2]: (8) %

Compound: N#CCCn1c2ccccc2c2c3c(c4c(c21)-c1ccccc1CC4)C(=O)NC3=O [IV-19]
- VEGFR kinase (% inhibition @ 300 nM) [2]: (4) %

Compound: N#CCCCn1c2ccccc2c2c3c(c4c(c21)-c1ccccc1CC4)C(=O)NC3=O [IV-20]
- VEGFR kinase (% inhibition @ 300 nM) [2]: (11) %

Compound: CCOC(=O)CCn1c2ccccc2c2c3c(c4c(c21)-c1ccccc1CC4)C(=O)NC3=O [IV-21]
- VEGFR kinase (% inhibition @ 300 nM) [2]: (7) %

Compound: O=C(O)CCn1c2ccccc2c2c3c(c4c(c21)-c1ccccc1CC4)C(=O)NC3=O [IV-22]
- VEGFR kinase (% inhibition @ 300 nM) [2]: (8) %

Compound: NCCCn1c2ccccc2c2c3c(c4c(c21)-c1ccccc1CC4)C(=O)NC3=O [IV-23]
- VEGFR kinase (% inhibition @ 300 nM) [2]: (0) %

Compound: CS(=O)(=O)NCCCn1c2ccccc2c2c3c(c4c(c21)-c1ccccc1CC4)C(=O)NC3=O [IV-24]
- VEGFR kinase (% inhibition @ 300 nM) [2]: (0) %

Compound: CC(=O)NCCCn1c2ccccc2c2c3c(c4c(c21)-c1ccccc1CC4)C(=O)NC3=O [IV-25]
- VEGFR kinase (% inhibition @ 300 nM) [2]: (0) %

Compound: CNC(=S)NCCCn1c2ccccc2c2c3c(c4c(c21)-c1ccccc1CC4)C(=O)NC3=O [IV-26]
- VEGFR kinase (% inhibition @ 300 nM) [2]: (10) %

Compound: O=C(NCCCn1c2ccccc2c2c3c(c4c(c21)-c1ccccc1CC4)C(=O)NC3=O)Nc1ccccc1 [IV-27]
- VEGFR kinase (% inhibition @ 300 nM) [2]: (5) %

Compound: CC(C)(C)OC(=O)N1CCCC1C(=O)NCCCn1c2ccccc2c2c3c(c4c(c21)-c1ccccc1CC4)C(=O)NC3=O (centres unmarked) [IV-29]
- VEGFR kinase (% inhibition @ 300 nM) [2]: (1) %

Compound: O=C1NC(=O)c2c1c1c(c3c2c2ccccc2n3CCCNC(=O)C2CCCN2)-c2ccccc2CC1 (centres unmarked) [IV-30]
- VEGFR kinase (% inhibition @ 300 nM) [2]: (1) %

Compound: CS(=O)(=O)N1CCCC1C(=O)NCCCn1c2ccccc2c2c3c(c4c(c21)-c1ccccc1CC4)C(=O)NC3=O (centres unmarked) [IV-31]
- VEGFR kinase (% inhibition @ 300 nM) [2]: (10) %

Compound: CS(=O)(=O)NCc1ccc2[nH]c3c4c(c5c(c3c2c1)C(=O)NC5=O)CCc1ccccc1-4 [IV-34]
- VEGFR kinase (% inhibition @ 300 nM) [2]: (54) %

Compound: CNC(=S)NCc1ccc2[nH]c3c4c(c5c(c3c2c1)C(=O)NC5=O)CCc1ccccc1-4 [IV-35]
- VEGFR kinase (% inhibition @ 300 nM) [2]: 43%
- IC50 [2]: 316 nM

Compound: CC(C)(C)OC(=O)C=Cc1ccc2[nH]c3c4c(c5c(c3c2c1)C(=O)NC5=O)CCc1ccccc1-4 [IV-36]
- VEGFR kinase (% inhibition @ 300 nM) [2]: (17) %

Compound: O=C(O)C=Cc1ccc2[nH]c3c4c(c5c(c3c2c1)C(=O)NC5=O)CCc1ccccc1-4 [IV-37]
- VEGFR kinase (% inhibition @ 300 nM) [2]: (11) %

Compound: CC(C)(C)OC(=O)CCc1ccc2[nH]c3c4c(c5c(c3c2c1)C(=O)NC5=O)CCc1ccccc1-4 [IV-38]
- VEGFR kinase (% inhibition @ 300 nM) [2]: (5) %

Compound: O=C1NC(=O)c2c1c1c(c3[nH]c4ccc(C=Cc5ccccn5)cc4c23)-c2ccccc2CC1 [IV-39]
- VEGFR kinase (% inhibition @ 300 nM) [2]: (8) %

Compound: O=C(O)CCc1ccc2[nH]c3c4c(c5c(c3c2c1)C(=O)NC5=O)CCc1ccccc1-4 [IV-40]
- VEGFR kinase (% inhibition @ 300 nM) [2]: (10) %

Compound: O=C1NC(=O)c2c1c1c(c3c2c2ccccc2n3CCCOCc2ccccc2)-c2ccccc2CC1 [IV-41]
- VEGFR kinase (% inhibition @ 300 nM) [2]: (34) %

Compound: O=C1NC(=O)c2c1c1c(c3c2c2ccccc2n3CCCO)-c2ccccc2CC1 [IV-42]
- VEGFR kinase (% inhibition @ 300 nM) [2]: (42) %

Compound: N#CC=Cc1ccc2[nH]c3c4c(c5c(c3c2c1)C(=O)NC5=O)CCc1ccccc1-4 [IV-43]
- VEGFR kinase (% inhibition @ 300 nM) [2]: (8) %

Compound: N#Cc1ccc2c(c1)c1c3c(c4c(c1n2CCCOCc1ccccc1)-c1ccccc1CC4)C(=O)NC3=O [IV-44]
- VEGFR kinase (% inhibition @ 300 nM) [2]: (3) %

Compound: O=C1NCc2c1c1c(c3[nH]c4ccccc4c23)-c2ccccc2C1 [IX-1]
- trkA (% inhibition @ 300 nM) [1, 4]: (9) %
- VEGFR kinase (% inhibition @ 300 nM) [2]: (10) %
- PDGFRβ (% inhibition @ 1 μM) [3, 5]: (23) %

Compound: O=C1NCc2c1c1c(c3[nH]c4ccccc4c23)-c2ccccc2CC1 [IX-2]
- trkA (% inhibition @ 300 nM) [1, 4]: (9) %
- IC50 [2]: 8750 nM
- PDGFRβ (% inhibition @ 1 μM) [3, 5]: (8) %

- IC50 [2]: 8390 nM
- inhibition at 1 µM [3, 5]: 10%
Compound: O=C1NC(=O)c2c1c1c(c3[nH]c4ncccc4c23)-c2ccccc2CC1 [XIII]

Compound: O=C1NC(=O)c2c1c1ccc3sccc3c1c1[nH]c3ccccc3c21 [XVII]
- inhibition at 0.3 µM [1]: 10%
- IC50 [2]: 796 nM
- inhibition at 1 µM [3]: 24%
